{
  "source": "patent US11439148B2",
  "about": "“Pyrimidine derivatives” (SYNGENTA PARTICIPATIONS AG, priority 2017, dated 2022)",
  "note": "“And” between values parts separate entries of the source, which are not always exact repeats. Identical values can stand only once.",
  "data": [
    {"tested_on": "four weed species (ABUTH, CHEAL, DIGSA, SETVI)", "assay": "Adjuvant efficacy with nicosulfuron, glasshouse spray test, average over all species", "format": "in vivo", "settings": "nicosulfuron WG, mean over 15 and 60 g/ha, adjuvant 0.2% v/v (none in No Adjuvant rows), 21 days, average of ABUTH", "experimental": "(§1) The efficacy of adjuvants 1-12 as adjuvants for the herbicide nicosulfuron were tested in a glasshouse against four weed species sown into standard soil in pots and cultivated under controlled conditions in a glasshouse (at 24/18° C. day/night; 16 hours light; 65% humidity). Nicosulfuron was added to the spray tank as a standard WG (water dispersible granule) formulation.\n(§2) The spray tests were also carried out using nicosulfuron in conjunction with adjuvants 1-12. The adjuvant was added to the spray solution at a rate of 0.2% v/v. All spray solutions also contained 12.5% v/v of iso-Propanol. The weed species and their BBCH growth stage at spraying were Abutilon theophrasti (ABUTH; growth stage 13), Chenopodium album (CHEAL; growth stage 13-14), Digitaria sanguinalis (DIGSA; growth stage 11), and Setaria viridis (SETVI; growth stage 13). Each spray test was replicated three times. The test plants were then grown in a glasshouse under controlled conditions (at 24/18° C. day/night; 16 hours light; 65% humidity) and watered twice a day. The efficacy of the herbicide was assessed visually and expressed as a percentage of the leaf area killed. Samples were assessed at a time period of 21 days following application. The results shown in Table 1 below are mean averages over the two rates of nicosulfuron, and the three replicates.", "units": {"Mean % Herbicidal Activity Average over all Species": "%"}, "values": [
      {"smiles": "CCCCCCCCC=CCCCCCCCCOc1cc(OCCOCCOCCOCCOCCOCCOCCOCCOCCOCCOC)ncn1", "note": "[Adjuvant 10]", "Mean % Herbicidal Activity Average over all Species": 81}
    ]},
    {"tested_on": "Abutilon theophrasti (ABUTH)", "assay": "Adjuvant efficacy with fomesafen, glasshouse spray test", "format": "in vivo", "settings": "fomesafen sodium salt SL, mean over 100 and 200 g/ha and 3 replicates; adjuvant 0.2% v/v (none in No Adjuvant rows); % leaf area killed, 21 days after application; Tests 1-4 separate runs", "experimental": "as §1, with “fomesafen (as the sodium salt)” for “nicosulfuron”, “species,” for “species”, “light,” for “light;”, “Fomesafen sodium salt” for “Nicosulfuron”, “SL (soluble concentrate)” for “WG (water dispersible granule)”\n(§3) The spray tests were also carried out using fomesafen in conjunction with adjuvants 1-12. Unless otherwise stated, the adjuvants were added to the spray solution at a rate of 0.2% v/v. All spray solutions also contained 12.5% v/v of iso-Propanol to normalise the retention of the sprays on the hydrophobic plant surfaces. The weed species and their BBCH growth stage at spraying were Abutilon theophrasti (ABUTH; growth stage 12-13), Chenopodium album (CHEAL; growth stage 15), Ipomea hederacea (IPOHE; growth stage 12), and Setaria viridis (SETVI; growth stage 14). Each spray test was replicated three times. The test plants were then grown in a glasshouse under controlled conditions (at 24/18° C. day/night; 16 hours light; 65% humidity) and watered twice a day.\n(§4) The efficacy of the herbicide was assessed visually and expressed as a percentage of the leaf area killed. Samples were assessed at a time period of 21 days following application. The results shown in Table 2 below are mean averages over the two rates of fomesafen, the three replicates […].", "values": [
      {"smiles": "CCCCCCCCC=CCCCCCCCCOc1cc(OCCOCCOCCOCCOCCOCCOCCOCCOCCOCCOC)ncn1", "note": "[Adjuvant 10]", "Mean % Herbicidal Activity ABUTH": "56% and 28%"}
    ]},
    {"tested_on": "Chenopodium album (CHEAL)", "assay": "Adjuvant efficacy with fomesafen, glasshouse spray test", "format": "in vivo", "settings": "fomesafen sodium salt SL, mean over 100 and 200 g/ha and 3 replicates; adjuvant 0.2% v/v (none in No Adjuvant rows); % leaf area killed, 21 days after application; Tests 1-4 separate runs", "experimental": "as §1, with “fomesafen (as the sodium salt)” for “nicosulfuron”, “species,” for “species”, “light,” for “light;”, “Fomesafen sodium salt” for “Nicosulfuron”, “SL (soluble concentrate)” for “WG (water dispersible granule)”\nas §3, §4", "values": [
      {"smiles": "CCCCCCCCC=CCCCCCCCCOc1cc(OCCOCCOCCOCCOCCOCCOCCOCCOCCOCCOC)ncn1", "note": "[Adjuvant 10]", "Mean % Herbicidal Activity CHEAL": "60% and 88%"}
    ]},
    {"tested_on": "Ipomea hederacea (IPOHE)", "assay": "Adjuvant efficacy with fomesafen, glasshouse spray test", "format": "in vivo", "settings": "fomesafen sodium salt SL, mean over 100 and 200 g/ha and 3 replicates; adjuvant 0.2% v/v (none in No Adjuvant rows); % leaf area killed, 21 days after application; Tests 1-4 separate runs", "experimental": "as §1, with “fomesafen (as the sodium salt)” for “nicosulfuron”, “species,” for “species”, “light,” for “light;”, “Fomesafen sodium salt” for “Nicosulfuron”, “SL (soluble concentrate)” for “WG (water dispersible granule)”\nas §3, §4", "values": [
      {"smiles": "CCCCCCCCC=CCCCCCCCCOc1cc(OCCOCCOCCOCCOCCOCCOCCOCCOCCOCCOC)ncn1", "note": "[Adjuvant 10]", "Mean % Herbicidal Activity IPOHE": "92% and 50%"}
    ]},
    {"tested_on": "Setaria viridis (SETVI)", "assay": "Adjuvant efficacy with fomesafen, glasshouse spray test", "format": "in vivo", "settings": "fomesafen sodium salt SL, mean over 100 and 200 g/ha and 3 replicates; adjuvant 0.2% v/v (none in No Adjuvant rows); % leaf area killed, 21 days after application; Tests 1-4 separate runs", "experimental": "as §1, with “fomesafen (as the sodium salt)” for “nicosulfuron”, “species,” for “species”, “light,” for “light;”, “Fomesafen sodium salt” for “Nicosulfuron”, “SL (soluble concentrate)” for “WG (water dispersible granule)”\nas §3, §4", "values": [
      {"smiles": "CCCCCCCCC=CCCCCCCCCOc1cc(OCCOCCOCCOCCOCCOCCOCCOCCOCCOCCOC)ncn1", "note": "[Adjuvant 10]", "Mean % Herbicidal Activity SETVI": "65% and 17%"}
    ]},
    {"tested_on": "four weed species (ABUTH, CHEAL, IPOHE, SETVI)", "assay": "Adjuvant efficacy with fomesafen, glasshouse spray test, average over all species", "format": "in vivo", "settings": "fomesafen sodium salt SL, mean over 100 and 200 g/ha, adjuvant 0.2% v/v (none in No Adjuvant rows), 21 days, average of ABUTH", "experimental": "as §1, with “fomesafen (as the sodium salt)” for “nicosulfuron”, “species,” for “species”, “light,” for “light;”, “Fomesafen sodium salt” for “Nicosulfuron”, “SL (soluble concentrate)” for “WG (water dispersible granule)”\nas §3, §4", "values": [
      {"smiles": "CCCCCCCCC=CCCCCCCCCOc1cc(OCCOCCOCCOCCOCCOCCOCCOCCOCCOCCOC)ncn1", "note": "[Adjuvant 10]", "Mean % Herbicidal Activity Average over all Species": "68% and 46%"}
    ]},
    {"tested_on": "Abutilon theophrasti (ABUTH)", "assay": "Adjuvant efficacy with nicosulfuron, glasshouse spray test", "format": "in vivo", "settings": "nicosulfuron WG, mean over 15 and 60 g/ha and 3 replicates; adjuvant 0.2% v/v (none in No Adjuvant rows); % leaf area killed, 21 days after application; Tests 1-4 separate runs", "experimental": "as §1, §2", "units": {"Mean % Herbicidal Activity ABUTH": "%"}, "values": [
      {"smiles": "CCCCCCCCC=CCCCCCCCCOc1cc(OCCOCCOCCOCCOCCOCCOCCOCCOCCOCCOC)ncn1", "note": "[Adjuvant 10]", "Mean % Herbicidal Activity ABUTH": 58}
    ]},
    {"tested_on": "Chenopodium album (CHEAL)", "assay": "Adjuvant efficacy with nicosulfuron, glasshouse spray test", "format": "in vivo", "settings": "nicosulfuron WG, mean over 15 and 60 g/ha and 3 replicates; adjuvant 0.2% v/v (none in No Adjuvant rows); % leaf area killed, 21 days after application; Tests 1-4 separate runs", "experimental": "as §1, §2", "units": {"Mean % Herbicidal Activity CHEAL": "%"}, "values": [
      {"smiles": "CCCCCCCCC=CCCCCCCCCOc1cc(OCCOCCOCCOCCOCCOCCOCCOCCOCCOCCOC)ncn1", "note": "[Adjuvant 10]", "Mean % Herbicidal Activity CHEAL": 80}
    ]},
    {"tested_on": "Digitaria sanguinalis (DIGSA)", "assay": "Adjuvant efficacy with nicosulfuron, glasshouse spray test", "format": "in vivo", "settings": "nicosulfuron WG, mean over 15 and 60 g/ha and 3 replicates; adjuvant 0.2% v/v (none in No Adjuvant rows); % leaf area killed, 21 days after application; Tests 1-4 separate runs", "experimental": "as §1, §2", "units": {"Mean % Herbicidal Activity DIGSA": "%"}, "values": [
      {"smiles": "CCCCCCCCC=CCCCCCCCCOc1cc(OCCOCCOCCOCCOCCOCCOCCOCCOCCOCCOC)ncn1", "note": "[Adjuvant 10]", "Mean % Herbicidal Activity DIGSA": 88}
    ]},
    {"tested_on": "Setaria viridis (SETVI)", "assay": "Adjuvant efficacy with nicosulfuron, glasshouse spray test", "format": "in vivo", "settings": "nicosulfuron WG, mean over 15 and 60 g/ha and 3 replicates; adjuvant 0.2% v/v (none in No Adjuvant rows); % leaf area killed, 21 days after application; Tests 1-4 separate runs", "experimental": "as §1, §2", "units": {"Mean % Herbicidal Activity SETVI": "%"}, "values": [
      {"smiles": "CCCCCCCCC=CCCCCCCCCOc1cc(OCCOCCOCCOCCOCCOCCOCCOCCOCCOCCOC)ncn1", "note": "[Adjuvant 10]", "Mean % Herbicidal Activity SETVI": 97}
    ]},
    {"tested_on": "Lolium perenne (LOLPE)", "assay": "Adjuvant efficacy with pinoxaden, glasshouse spray test", "format": "in vivo", "settings": "pinoxaden EC, mean over 7.5 and 15 g/ha and 3 replicates; adjuvant 0.2% v/v (none in No Adjuvant rows); % leaf area killed, 21 days after application; Tests 1-4 separate runs", "experimental": "as §1, with “pinoxaden” for “nicosulfuron”, “species,” for “species”, “20/16°” for “24/18°”, “Pinoxaden” for “Nicosulfuron”, “EC (emulsifiable concentrate)” for “WG (water dispersible granule)”\n(§5) The spray tests were also carried out using pinoxaden in conjunction with adjuvants 1-12. The adjuvants were added to the spray solution at a rate of 0.2% v/v unless otherwise stated. All spray solutions also contained 10% w/w of iso-Propanol. The weed species and their BBCH growth stage at spraying were Avena fatua (AVEFA; growth stage 12), Lolium perenne (LOLPE; growth stage 13), Alopecurus myosuroides (ALOMY; growth stage 13), and Setaria viridis (SETVI; growth stage 13-14). Each spray test was replicated three times. The test plants were then grown in a glasshouse under controlled conditions (at 20/16° C. day/night; 16 hours light; 65% humidity) and watered twice a day. The efficacy of the herbicide was assessed visually and expressed as a percentage of the leaf area killed. Samples were assessed at a time period of 21 days following application. The results shown in Table 4 below are mean averages over the two rates of pinoxaden, and the three replicates.", "units": {"Mean % Herbicidal Activity LOLPE": "%"}, "values": [
      {"smiles": "CCCCCCCCC=CCCCCCCCCOc1cc(OCCOCCOCCOCCOCCOCCOCCOCCOCCOCCOC)ncn1", "note": "[Adjuvant 10]", "Mean % Herbicidal Activity LOLPE": 25}
    ]},
    {"tested_on": "Setaria viridis (SETVI)", "assay": "Adjuvant efficacy with pinoxaden, glasshouse spray test", "format": "in vivo", "settings": "pinoxaden EC, mean over 7.5 and 15 g/ha and 3 replicates; adjuvant 0.2% v/v (none in No Adjuvant rows); % leaf area killed, 21 days after application; Tests 1-4 separate runs", "experimental": "as §1, with “pinoxaden” for “nicosulfuron”, “species,” for “species”, “20/16°” for “24/18°”, “Pinoxaden” for “Nicosulfuron”, “EC (emulsifiable concentrate)” for “WG (water dispersible granule)”\nas §5", "units": {"Mean % Herbicidal Activity SETVI": "%"}, "values": [
      {"smiles": "CCCCCCCCC=CCCCCCCCCOc1cc(OCCOCCOCCOCCOCCOCCOCCOCCOCCOCCOC)ncn1", "note": "[Adjuvant 10]", "Mean % Herbicidal Activity SETVI": 89}
    ]},
    {"tested_on": "Avena fatua (AVEFA)", "assay": "Adjuvant efficacy with pinoxaden, glasshouse spray test", "format": "in vivo", "settings": "pinoxaden EC, mean over 7.5 and 15 g/ha and 3 replicates; adjuvant 0.2% v/v (none in No Adjuvant rows); % leaf area killed, 21 days after application; Tests 1-4 separate runs", "experimental": "as §1, with “pinoxaden” for “nicosulfuron”, “species,” for “species”, “20/16°” for “24/18°”, “Pinoxaden” for “Nicosulfuron”, “EC (emulsifiable concentrate)” for “WG (water dispersible granule)”\nas §5", "units": {"Mean % Herbicidal Activity AVEFA": "%"}, "values": [
      {"smiles": "CCCCCCCCC=CCCCCCCCCOc1cc(OCCOCCOCCOCCOCCOCCOCCOCCOCCOCCOC)ncn1", "note": "[Adjuvant 10]", "Mean % Herbicidal Activity AVEFA": 80}
    ]},
    {"tested_on": "Alopecurus myosuroides (ALOMY)", "assay": "Adjuvant efficacy with pinoxaden, glasshouse spray test", "format": "in vivo", "settings": "pinoxaden EC, mean over 7.5 and 15 g/ha and 3 replicates; adjuvant 0.2% v/v (none in No Adjuvant rows); % leaf area killed, 21 days after application; Tests 1-4 separate runs", "experimental": "as §1, with “pinoxaden” for “nicosulfuron”, “species,” for “species”, “20/16°” for “24/18°”, “Pinoxaden” for “Nicosulfuron”, “EC (emulsifiable concentrate)” for “WG (water dispersible granule)”\nas §5", "units": {"Mean % Herbicidal Activity ALOMY": "%"}, "values": [
      {"smiles": "CCCCCCCCC=CCCCCCCCCOc1cc(OCCOCCOCCOCCOCCOCCOCCOCCOCCOCCOC)ncn1", "note": "[Adjuvant 10]", "Mean % Herbicidal Activity ALOMY": 9}
    ]}
  ]
}
